In patent US8722027B2, “Method for preparing broussonetia kazinoki extract” (Amorepacific Corporation, priority 2010, dated 2014):
Values after ≈ are worked out from the molar mass of the structure shown. Blank lines part the entries; values can stand above or below the compound they belong to.

Legend:
tyrosinase [1] = test: Tyrosinase inhibitory effect (method of Test Example 1-2); assay type: biochemical; details: 50 mg sample in 100 ml ethanol, diluted 10-fold; 50 μl sample solution; 37° C., 10 minutes; absorbance 490 nm
Procedure: 50 mg of a sample to be evaluated for tyrosinase inhibitory activity was dissolved in ethanol to make 100 ml of a solution. 10 ml of the solution was taken, and ethanol was added thereto to make 100 ml of a sample solution. 500 μl of a substrate solution, 450 μl of purified water and 50 μl of the sample solution are added to and mixed with 500 μl of buffer, and 50 μl of an enzyme (tyrosinase) solution is added to the mixture. The resulting mixture is allowed to react at 37° C. for 10 minutes, and then immediately allowed to stand on ice for 5 minutes, and the absorbance at 490 nm is measured. The tyrosinase inhibitory effect of the sample is evaluated based on the absorbance of the sample compared to the absorbance of a blank sample.

[2] = Partition coefficient in two-phase solvent system; assay type: physicochemical; details: hexane/ethyl acetate/methanol/water 5/5/5/2
Procedure: The partition coefficient of kazinol C was measured in the following manner First, 1 mg of the extract of Example 3 was placed in a 10-ml test tube, and 2 ml of each of the upper layer solution and lower layer solution of a two-phase solution system, which reached equilibrium, was added thereto, and the mixture was shaken intensively for 1 minute. After the two phases have reached equilibrium, 100 μl of each of the upper layer solution and the lower layer solution was taken, dried, dissolved in 1 ml of ethanol, and analyzed by HPLC. The value obtained by dividing the amount of kazinol C in the upper layer solution by the amount of kazinol C in the lower layer solution was determined as partition coefficient.

tyrosinase [3] = target: T1, tyrosinase (Homo sapiens, UniProt P14679); details: compared to kojic acid; known; cited from earlier work
T1 sequence (P14679 19-529): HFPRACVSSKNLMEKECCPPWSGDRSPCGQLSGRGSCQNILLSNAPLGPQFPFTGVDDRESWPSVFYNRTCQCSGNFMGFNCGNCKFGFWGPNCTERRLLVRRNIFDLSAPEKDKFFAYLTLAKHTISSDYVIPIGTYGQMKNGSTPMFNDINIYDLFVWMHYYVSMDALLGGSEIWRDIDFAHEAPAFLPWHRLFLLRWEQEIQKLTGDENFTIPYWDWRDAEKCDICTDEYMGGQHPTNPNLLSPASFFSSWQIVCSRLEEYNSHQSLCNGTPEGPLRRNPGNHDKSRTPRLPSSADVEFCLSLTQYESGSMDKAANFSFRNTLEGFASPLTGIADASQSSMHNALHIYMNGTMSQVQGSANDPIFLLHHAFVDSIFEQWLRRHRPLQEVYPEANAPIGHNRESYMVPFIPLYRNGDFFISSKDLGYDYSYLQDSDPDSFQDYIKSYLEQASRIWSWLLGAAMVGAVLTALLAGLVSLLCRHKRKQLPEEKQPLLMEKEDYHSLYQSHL

B16 melanoma cells [4] = test: Inhibition of melanin production (α-MSH stimulated); assay type: cell-based, mouse; details: 100 μg/ml, 1 μM α-MSH
Procedure: (§1) B16 melanoma cells from C57BL/6J (black, a/a) mouse melanoma were purchased from the Cell Line Bank. The cells were cultured in DMEM medium containing 10% fetal bovine serum (LONZA), 50 U/ml of penicillin and 50 μg/ml of […] streptomycin under the conditions of 37° C. and 10% CO2.
B16 melanoma cells were seeded in a 24-well plate at a density of 4×10^4 cells/well and cultured overnight so as to adhere well to the plate. Then, medium containing 1 μM α-MSH for promoting melanin production and each concentration of the test sample of Preparation Example 6 or arbutin was added to each well. The plate was incubated for 72 hours, and then 200 μl of the cell culture medium was taken and the absorbance at 405 nm was measured. Based on the measurement, the amount of melanin was calculated. The calculated amount of melanin was expressed as a percentage relative to the control (not treated with the test material), and the results are shown in Table 9 below.

B16 melanoma cells [5] = test: Cytotoxicity measurement (MTT assay); assay type: cell-based, mouse
Procedure: as §1
B16 melanoma cells were seeded in a 96-well plate at a density of 1×10^4 cells/well and cultured for 1 day. The medium was replaced with fresh medium containing each of arbutin and various concentration of the composition of Preparation Example 6, and the cells were cultured again for 24 hours. 50 μl of an MIT solution obtained by dissolving MIT in cell culture medium at a concentration of 2 mg/ml was added to each well, and medium was added to each well to a final volume of 200 μl, after which the cells were incubated for 3-4 hours. The medium was removed, and the produced formazan crystals were dissolved in 150 μl of DMSO, after which the absorbance of the formazan solution was measured at 540 nm. The measured absorbance was expressed as a percentage relative to the control (not treated with the test material) to evaluate whether the test sample has cytotoxicity.

mushroom tyrosinase = test: Inhibition of tyrosinase activity (L-tyrosine substrate); assay type: biochemical
Procedure: First, as test samples, arbutin and the composition of Preparation Example 6 were prepared at various concentrations, and an enzyme was added thereto in an amount corresponding to 10 units, after which 0.1M phosphate buffer was added thereto to a final volume of 100 μl. 100 μl of 0.03% L-tyrosine substrate solution was added thereto, and then immediately, the absorbance at 475 nm was measured. Then, the mixture was allowed to react at 37° C. for 10 minutes, after which it was placed on ice to stop the reaction, and the absorbance was measured again.

Tyrosinase inhibitory effect (%) (tyrosinase [1]): 80%
Compound: O=c1cc(CO)occ1O [Control, kojic acid]

Partition coefficient (upper layer / lower layer) [2]: 0.997
Compound: C=CC(C)(C)c1cc(CCCc2cc(O)c(O)c(CC=C(C)C)c2CC=C(C)C)c(O)cc1O [kazinol C]
Tyrosinase inhibitory effect (in words) (tyrosinase [3]): excellent tyrosinase inhibitory effect compared to kojic acid

Inhibition (%) of tyrosinase activity (mushroom tyrosinase; 125 μg/ml): 38.1%
Inhibition (%) of tyrosinase activity (mushroom tyrosinase; 250 μg/ml): 56.5%
Inhibition (%) of tyrosinase activity (mushroom tyrosinase; 500 μg/ml): 87.7%
IC50 (μg/ml), tyrosinase activity (mushroom tyrosinase; mushroom tyrosinase 10 units, 37° C., 10 minutes): 209.6 µg/mL (≈ 770 µM)
Compound: OC[C@H]1O[C@@H](Oc2ccc(O)cc2)[C@H](O)[C@@H](O)[C@@H]1O [Arbutin, arbutin]
Inhibition (%) of melanin production (B16 melanoma cells [4]; 72 hours): 33.7%
Melanin % relative to control (B16 melanoma cells [4]; 72 hours): 66.3 ± 4.7%
inhibition at 100 µg/mL (B16 melanoma cells [4]; Mus musculus, B16, 72 h): 21.2%
% relative to control (MTT absorbance) (B16 melanoma cells [5]; 100 μg/ml, 24 hours): 95.1 ± 4.8%
Toxicity (%) (B16 melanoma cells [5]; 100 μg/ml, 24 hours): 4.9%
Cytotoxicity (in words) (B16 melanoma cells [5]; at a concentration of 100 μg/ml): no cytotoxicity
